In PubChem BioAssay (NCI):
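Briefly, cells in 96-well plates were exposed to five compound concentrations for 48 h, and endpoints were estimated by linear interpolation. At the GI50, growth is halved. TGI marks complete inhibition of growth.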

What was measured:
Experiment in all cases: growth of human tumour cells (NCI), 48 h
SK-MEL-28 melanoma = test system: SK-MEL-28 melanoma
COLO 205 colon = test system: COLO 205 colon
A549 NSCLC = test system: A549 NSCLC
786-0 renal = test system: 786-0 renal
PC-3 prostate = test system: PC-3 prostate
M14 melanoma = test system: M14 melanoma
NCI-H460 lung = test system: NCI-H460 lung
NCI-H522 lung = test system: NCI-H522 lung
U251 CNS = test system: U251 CNS
DU-145 prostate = test system: DU-145 prostate
NCI/ADR-RES ovarian = test system: NCI/ADR-RES ovarian
MOLT-4 leukemia = test system: MOLT-4 leukemia
OVCAR-8 ovarian = test system: OVCAR-8 ovarian
SK-MEL-2 melanoma = test system: SK-MEL-2 melanoma
SN12C renal = test system: SN12C renal
KM12 colon = test system: KM12 colon
EKVX NSCLC = test system: EKVX NSCLC
OVCAR-4 ovarian = test system: OVCAR-4 ovarian
BT-549 breast = test system: BT-549 breast
SF-268 CNS = test system: SF-268 CNS
K-562 leukemia = test system: K-562 leukemia
OVCAR-5 ovarian = test system: OVCAR-5 ovarian
RXF 393 renal = test system: RXF 393 renal
T-47D breast = test system: T-47D breast
UACC-257 melanoma = test system: UACC-257 melanoma
OVCAR-3 ovarian = test system: OVCAR-3 ovarian
UO-31 renal = test system: UO-31 renal
HCT-15 colon = test system: HCT-15 colon
LOX IMVI melanoma = test system: LOX IMVI melanoma
NCI-H23 lung = test system: NCI-H23 lung
SNB-19 CNS = test system: SNB-19 CNS
A498 renal = test system: A498 renal
RPMI-8226 leukemia = test system: RPMI-8226 leukemia
MDA-MB-231 breast = test system: MDA-MB-231 breast
HCC-2998 colon = test system: HCC-2998 colon
CAKI-1 renal = test system: CAKI-1 renal
SNB-75 CNS = test system: SNB-75 CNS
UACC-62 melanoma = test system: UACC-62 melanoma
NCI-H226 lung = test system: NCI-H226 lung
ACHN renal = test system: ACHN renal
HCT-116 colon = test system: HCT-116 colon
SF-295 CNS = test system: SF-295 CNS
HT29 colon = test system: HT29 colon
HL-60(TB) leukemia = test system: HL-60(TB) leukemia
MCF7 breast = test system: MCF7 breast
HS 578T breast = test system: HS 578T breast
HOP-92 NSCLC = test system: HOP-92 NSCLC
MDA-MB-435 = test system: MDA-MB-435
SF-539 CNS = test system: SF-539 CNS
SK-MEL-5 melanoma = test system: SK-MEL-5 melanoma
SK-OV-3 ovarian = test system: SK-OV-3 ovarian
SW-620 colon = test system: SW-620 colon
MALME-3M melanoma = test system: MALME-3M melanoma
IGROV1 ovarian = test system: IGROV1 ovarian
HOP-62 NSCLC = test system: HOP-62 NSCLC
TK-10 renal = test system: TK-10 renal
CCRF-CEM leukemia = test system: CCRF-CEM leukemia

## CC(=O)c1cccc(NC(=O)c2ccc(NC3=C(Cl)C(=O)N(Cc4ccccc4)C3=O)cc2)c1
SK-MEL-28 melanoma
  GI50: 25.6 µM
  TGI: > 100 µM
COLO 205 colon
  GI50: 29.2 µM
  TGI: > 100 µM
A549 NSCLC
  GI50: 25.8 µM
  TGI: > 100 µM
786-0 renal
  GI50: 16.5 µM
  TGI: 36.4 µM
PC-3 prostate
  GI50: 15.9 µM
  TGI: 36.4 µM
M14 melanoma
  GI50: 17.1 µM
  TGI: 33.3 µM
NCI-H460 lung
  GI50: 22.1 µM
  TGI: > 100 µM
NCI-H522 lung
  GI50: 2.45 µM
  TGI: 19.4 µM
U251 CNS
  GI50: 17.9 µM
  TGI: 44.5 µM
DU-145 prostate
  GI50: 13.4 µM
  TGI: 34.2 µM
NCI/ADR-RES ovarian
  GI50: 30.8 µM
  TGI: > 100 µM
MOLT-4 leukemia
  GI50: 2.21 µM
  TGI: > 100 µM
OVCAR-8 ovarian
  GI50: 14.3 µM
  TGI: 50.7 µM
SK-MEL-2 melanoma
  GI50: 2.38 µM
  TGI: 11.5 µM
SN12C renal
  GI50: 1.92 µM
  TGI: 9.63 µM
KM12 colon
  GI50: 20 µM
  TGI: 43 µM
EKVX NSCLC
  GI50: 30.3 µM
  TGI: 97.3 µM
OVCAR-4 ovarian
  GI50: 24.9 µM
  TGI: 92.2 µM
BT-549 breast
  GI50: 8.8 µM
  TGI: 27.9 µM
SF-268 CNS
  GI50: 22.2 µM
  TGI: 98.9 µM
K-562 leukemia
  GI50: 8.37 µM
  TGI: > 100 µM
OVCAR-5 ovarian
  GI50: > 100 µM
  TGI: > 100 µM
RXF 393 renal
  GI50: 24 µM
  TGI: > 100 µM
T-47D breast
  GI50: 25.1 µM
  TGI: > 100 µM
UACC-257 melanoma
  GI50: 18.7 µM
  TGI: 72.4 µM
OVCAR-3 ovarian
  GI50: 9.57 µM
  TGI: 22.7 µM
UO-31 renal
  GI50: 1.52 µM
  TGI: 3.12 µM
HCT-15 colon
  GI50: 16.8 µM
  TGI: 44.5 µM
LOX IMVI melanoma
  GI50: 13.9 µM
  TGI: 33.8 µM
NCI-H23 lung
  GI50: 23 µM
  TGI: 43.7 µM
SNB-19 CNS
  GI50: 32.8 µM
  TGI: > 100 µM
A498 renal
  GI50: 19.6 µM
  TGI: 60.4 µM
RPMI-8226 leukemia
  GI50: 3.31 µM
  TGI: 15.1 µM
MDA-MB-231 breast
  GI50: 15 µM
  TGI: 38.3 µM
HCC-2998 colon
  GI50: 23.1 µM
  TGI: 41 µM
CAKI-1 renal
  GI50: 1.61 µM
  TGI: 3.05 µM
SNB-75 CNS
  GI50: 30.1 µM
  TGI: > 100 µM
UACC-62 melanoma
  GI50: 13.8 µM
  TGI: 29.3 µM
NCI-H226 lung
  GI50: 9.9 µM
  TGI: 28.1 µM
ACHN renal
  GI50: 22.7 µM
  TGI: 49.1 µM
HCT-116 colon
  GI50: 12.6 µM
  TGI: 25.9 µM
SF-295 CNS
  GI50: 15.3 µM
  TGI: 47.8 µM
HT29 colon
  GI50: 27.3 µM
  TGI: > 100 µM
HL-60(TB) leukemia
  GI50: 2.83 µM
  TGI: 17.2 µM
MCF7 breast
  GI50: 9.34 µM
  TGI: > 100 µM
HS 578T breast
  GI50: 22.6 µM
  TGI: 88.7 µM
HOP-92 NSCLC
  GI50: 6.45 µM
  TGI: 22.8 µM
MDA-MB-435
  GI50: 11.8 µM
  TGI: 30.1 µM
SF-539 CNS
  GI50: 11.4 µM
  TGI: 28.7 µM
SK-MEL-5 melanoma
  GI50: 12.5 µM
  TGI: 27.7 µM
SK-OV-3 ovarian
  GI50: > 100 µM
  TGI: > 100 µM
SW-620 colon
  GI50: 5.87 µM
  TGI: > 100 µM

## COc1ccc(-c2nnc(Nc3nc(O)c(C4=c5cc(F)ccc5=NC4=O)s3)o2)cc1
SK-MEL-28 melanoma
  GI50: > 100 µM
  TGI: > 100 µM
COLO 205 colon
  GI50: 68.2 µM
  TGI: > 100 µM
A549 NSCLC
  GI50: 64.6 µM
  TGI: > 100 µM
786-0 renal
  GI50: 23.4 µM
  TGI: 56.3 µM
PC-3 prostate
  GI50: 32.4 µM
  TGI: > 100 µM
NCI-H460 lung
  GI50: 34.2 µM
  TGI: > 100 µM
NCI-H522 lung
  GI50: 33.9 µM
  TGI: > 100 µM
U251 CNS
  GI50: 25.3 µM
  TGI: 61.2 µM
DU-145 prostate
  GI50: 46.9 µM
  TGI: > 100 µM
NCI/ADR-RES ovarian
  GI50: 49.7 µM
  TGI: > 100 µM
MOLT-4 leukemia
  GI50: 30.4 µM
  TGI: > 100 µM
OVCAR-8 ovarian
  GI50: 54.4 µM
  TGI: > 100 µM
SK-MEL-2 melanoma
  GI50: 33.7 µM
  TGI: > 100 µM
SN12C renal
  GI50: 47 µM
  TGI: > 100 µM
KM12 colon
  GI50: 43.1 µM
  TGI: > 100 µM
EKVX NSCLC
  GI50: 96.1 µM
  TGI: > 100 µM
OVCAR-4 ovarian
  GI50: 39.7 µM
  TGI: > 100 µM
BT-549 breast
  GI50: 36.5 µM
  TGI: > 100 µM
SF-268 CNS
  GI50: 67.7 µM
  TGI: > 100 µM
MALME-3M melanoma
  GI50: 34.5 µM
  TGI: > 100 µM
K-562 leukemia
  GI50: 37.1 µM
  TGI: > 100 µM
OVCAR-5 ovarian
  GI50: > 100 µM
  TGI: > 100 µM
RXF 393 renal
  GI50: 65.8 µM
  TGI: > 100 µM
T-47D breast
  GI50: 93.2 µM
  TGI: > 100 µM
UACC-257 melanoma
  GI50: > 100 µM
  TGI: > 100 µM
IGROV1 ovarian
  GI50: 14.3 µM
  TGI: 51.4 µM
OVCAR-3 ovarian
  GI50: 14.8 µM
  TGI: 42.3 µM
UO-31 renal
  GI50: 37.9 µM
  TGI: > 100 µM
HOP-62 NSCLC
  GI50: 18.2 µM
  TGI: 43.7 µM
HCT-15 colon
  GI50: 44.7 µM
  TGI: > 100 µM
LOX IMVI melanoma
  GI50: 40 µM
  TGI: > 100 µM
NCI-H23 lung
  GI50: 67.7 µM
  TGI: > 100 µM
SNB-19 CNS
  GI50: 48.2 µM
  TGI: > 100 µM
A498 renal
  GI50: 41.7 µM
  TGI: > 100 µM
RPMI-8226 leukemia
  GI50: 59.1 µM
  TGI: > 100 µM
MDA-MB-231 breast
  GI50: 19.8 µM
  TGI: 52.2 µM
TK-10 renal
  GI50: 56.3 µM
  TGI: > 100 µM
HCC-2998 colon
  GI50: 84.3 µM
  TGI: > 100 µM
CAKI-1 renal
  GI50: 28.8 µM
  TGI: 99.3 µM
UACC-62 melanoma
  GI50: 35.1 µM
  TGI: > 100 µM
NCI-H226 lung
  GI50: 46.3 µM
  TGI: > 100 µM
ACHN renal
  GI50: 35.3 µM
  TGI: > 100 µM
CCRF-CEM leukemia
  GI50: 28.8 µM
  TGI: > 100 µM
HCT-116 colon
  GI50: 20 µM
  TGI: 42.7 µM
SF-295 CNS
  GI50: 29.5 µM
  TGI: > 100 µM
HT29 colon
  GI50: 40.5 µM
  TGI: > 100 µM
MCF7 breast
  GI50: 34.5 µM
  TGI: > 100 µM
HS 578T breast
  GI50: 69.1 µM
  TGI: > 100 µM
HOP-92 NSCLC
  GI50: 87 µM
  TGI: > 100 µM
MDA-MB-435
  GI50: 36.2 µM
  TGI: > 100 µM
SF-539 CNS
  GI50: 80.9 µM
  TGI: > 100 µM
SK-MEL-5 melanoma
  GI50: 28.7 µM
  TGI: > 100 µM
SK-OV-3 ovarian
  GI50: > 100 µM
  TGI: > 100 µM
SW-620 colon
  GI50: 47.6 µM
  TGI: > 100 µM
